Tested on: Human glioblastoma cells (T98G, Cell line)
Test: Promotion of NGF synthesis: NGF content in culture supernatant by enzyme immunoassay
Type: cell-based
Conditions: for content of NGF in the sample solution as compared with the systems not containing any effective ingredient: result in words, both tested concentrations; for content of NGF in the sample solution as compared with the systems not containing any effective ingredient / NGF Content in sample solution: T98G cells; for NGF Content in sample solution: 4 days cultivation, mean ± standard deviation; for Relative NGF content: ratio of example solution to comparative example solution
Method: Human glioblastoma cells (T98G, Cell line) were seeded in a MEM medium containing fetal bovine serum (10%; Gibco), sodium pyruvate (×1; Gibco) and nonessential amino acids (×1; Gibco) in wells of a flat-bottom 96-well plate (Corning), in a cell density of 2×10^4/well, and cultivated in a CO2 incubator (37° C., 5% CO2) for 3 days. The medium was then replaced by an Opti-MEM medium (containing 5 mg/ml of bovine serum albumin). The cultivation was continued for further 6 days with replacing the medium at intervals of 3 days.
[…] After the cultivation, the supernatant was taken as a sample solution.
On the other hand, 1 ug/ml of an anti-NGF antibody (Promega) solution (50 ul) was added to each well of a 96-well microplate (Nunc), and the plate was allowed to stand overnight at 4° C. After washing the plate with PBS(−) (Nissui Pharmaceuticals), 1% of a bovine serum albumin (Sigma) solution (100 ul) was added to each well of the plate and the plate was allowed to stand at room temperature for 4 hrs. Subsequently, the plate was washed with PBS (−) and the above sample solution (50 ul) was added to each well of the plate. After the reaction at room temperature for one hour, the plate was washed with PBS (−).
Subsequently, 0.4 unit/ml of an beta-galactosidase-labeled anti-NGF antibody (Boehringer Mannheim) solution (50 ul) was added to each well of the plate, and allowed to react at room temperature for one hour. After washing the plate with PBS (−), 0.5 mg/ml of a 4-methylumbelliferyl-beta-D-galactoside solution (200 ul) was added to each well of the plate, and allowed to react overnight at room temperature. The fluorescence intensity of 4-methylumbelliferone produced was measured on a fluorescence plate reader, and the content of NGF contained in the sample solution was determined using a standard curve obtained from a standard solution (human beta-NGF; PEPRO TECH EC).

[1] = 20 uM effective ingredient in medium
[2] = 100 uM effective ingredient in medium

SMILES	content of NGF in the sample solution as compared with the systems not containing any effective ingredient	NGF Content in sample solution [1] [pg/mL]	Relative NGF content [1]	NGF Content in sample solution [2] [pg/mL]	Relative NGF content [2]
CC(C)c1cc2c(c(O)c1O)[C@@]13CCCC(C)(C)[C@@H]1C[C@@H]2OC3=O [carnosol of the formula (II)]	increases	–	–	–	–
CC(C)c1cc2c(c(O)c1O)[C@@]1(C(=O)O)CCCC(C)(C)[C@@H]1CC2 [carnosic acid of the formula (I)]	increases	–	–	–	–
CC(C)c1cc2c(c(O)c1O)[C@@]13CCCC(C)(C)C1C[C@@H]2OC3=O (stereo partly shown) [Carnosol of formula (II), carnosol]	–	35.4 ± 6.9	5.5	39.9 ± 2.3	6.2
CC(C)c1cc2c(c(O)c1O)[C@@]1(C(=O)O)CCCC(C)(C)C1CC2 (stereo partly shown) [Carnosic acid of formula (I), carnosic acid]	–	46.0 ± 7.4	7.2	158.5 ± 16.6	24.8
